# Experimental data: patent US11926625B2, “HPK1 antagonists and uses thereof” (Nimbus Saturn, Inc., priority 2021, dated 2024)
# Target: T1, HPK1 (Homo sapiens, UniProt Q92918)
# T1 construct: purchased Invitrogen
# Experiment: HPK1 biochemical enzyme assay (microfluidic mobility shift, Caliper)
# Conditions: 1.5 nM HPK1 (Invitrogen), 1 mM ATP, 30 min preincubation, 60 min at RT, top concentration 3 μM; read-out: HPK1 1000UMATP caliper IC50
# Description: Example 20. HPK1 Biochemical Enzyme Assay
# HPK1 biochemical enzyme assay: HPK1 enzyme inhibition was measured using a microfluidic mobility shift assay. Reactions were performed in a 384-well plate, containing 1.5 nM HPK1 (Invitrogen), in assay buffer (Cama Biosciences; pH 7.4). Test compounds were titrated in ten point curves (top final assay concentration 3 μM), and preincubated with enzyme/substrate mix for 30 min prior to initiation of the reaction by addition of ATP (1 mM final concentration) and substrate (1 μM final concentration; Carna Biosciences) diluted in assay buffer supplemented by MgCl2 (final assay concentration of 5 mM). Following 60 min incubation at RT, the reaction was terminated by addition of 60 μl/well termination buffer (Carna Biosciences) and signal determination using a Caliper EZ Reader (Perkin Elmer, UK).
# T1 sequence (Q92918 whole entry): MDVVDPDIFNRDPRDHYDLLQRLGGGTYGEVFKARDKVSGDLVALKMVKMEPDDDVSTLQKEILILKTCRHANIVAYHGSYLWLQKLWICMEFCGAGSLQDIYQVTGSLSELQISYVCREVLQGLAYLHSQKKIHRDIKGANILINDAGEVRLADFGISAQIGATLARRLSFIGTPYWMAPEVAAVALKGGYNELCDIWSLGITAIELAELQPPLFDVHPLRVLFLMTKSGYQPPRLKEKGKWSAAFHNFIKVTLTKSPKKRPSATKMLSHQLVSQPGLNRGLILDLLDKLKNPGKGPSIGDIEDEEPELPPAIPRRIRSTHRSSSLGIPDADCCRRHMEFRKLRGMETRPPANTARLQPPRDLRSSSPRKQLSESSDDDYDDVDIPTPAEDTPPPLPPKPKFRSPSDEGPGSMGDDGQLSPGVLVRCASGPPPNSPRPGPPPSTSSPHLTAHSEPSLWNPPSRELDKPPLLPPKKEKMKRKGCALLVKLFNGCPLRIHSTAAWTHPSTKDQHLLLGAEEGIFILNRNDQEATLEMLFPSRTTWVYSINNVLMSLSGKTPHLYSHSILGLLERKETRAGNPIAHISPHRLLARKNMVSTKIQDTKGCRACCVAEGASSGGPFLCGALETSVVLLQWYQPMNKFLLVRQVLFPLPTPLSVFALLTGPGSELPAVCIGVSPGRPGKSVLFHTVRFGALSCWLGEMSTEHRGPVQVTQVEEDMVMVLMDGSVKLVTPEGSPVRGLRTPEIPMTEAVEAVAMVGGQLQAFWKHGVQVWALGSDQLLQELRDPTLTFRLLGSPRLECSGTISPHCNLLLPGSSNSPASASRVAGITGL
row,IC50 [µM],Compound
1,< 1,"O=C1NCc2c(-c3ccncc3)ccc(Nc3cc(C4CCOC4)n[nH]3)c21 (stereo not drawn) [Compound I-36, 4-(4-pyridyl)-7-[(3-tetrahydrofuran-3-yl-1H-pyrazol-5-yl)amino] isoindolin-1-one]"
2,1 to 5,"COc1cccc(-c2ncc(Nc3ccc(N4CCN(C)CC4)cn3)c3c2CNC3=O)c1OC [Compound I-19, 4-(2,3-dimethoxyphenyl)-7-[[5-(4-methylpiperazin-1-yl)-2-pyridyl]amino]-2,3-dihydropyrrolo [3,4-c]pyridin-1-one]"
3,1 to 5,"CN1CCN(c2ccc(Nc3ccc(-c4ccnc(-c5c(F)cccc5F)c4)c4c3C(=O)NC4)nc2)CC1 [Compound I-40, 4-[2-(2,6-difluorophenyl)-4-pyridyl]-7-[[5-(4-methylpiperazin-1-yl)-2-pyridyl]amino] isoindolin-1-one]"
4,1 to 5,"O=C1NCc2c(-c3c(F)cccc3F)ncc(Nc3ccc(N4CCNCC4)cn3)c21 [Compound I-3, 4-(2,6-difluorophenyl)-7-[(5-piperazin-1-yl-2-pyridyl)amino]-2,3-dihydropyrrolo [3,4-c]pyridin-1-one]"
5,< 1,CCN1CCN(Cc2ccc(NC(=O)c3ccc(-c4ncc(Nc5ccc(N6CCN(C)CC6)cn5)c5c4CNC5=O)cc3)cc2C(F)(F)F)CC1 [Compound I-24]
6,< 1,"CN1CCN(c2ccc(Nc3ccc(-c4cn[nH]c4)c4c3C(=O)NC4)nc2)CC1 [Compound I-84, 7-((5-(4-methylpiperazin-1-yl)pyridin-2-yl)amino)-4-(1H-pyrazol-4-yl)isoindolin-1-one]"
7,< 1,"Cc1cc(-c2ccc(Nc3ccc(N4CCN(C)CC4)cn3)c3c2CNC3=O)cc(=O)[nH]1 [Compound I-57, 4-(6-methyl-2-oxo-1,2-dihydropyridin-4-yl)-7-((5-(4-methylpiperazin-1-yl)pyridin-2-yl)amino) isoindolin-1-one]"
8,1 to 5,"CN1CCN(c2ccc(Nc3ccc(-c4ccnc(N5CC6CCC(C5)O6)n4)c4c3C(=O)NC4)nc2)CC1 [Compound I-82, 4-(2-(8-oxa-3-azabicyclo [3.2.1]octan-3-yl)pyrimidin-4-yl)-7-((5-(4-methylpiperazin-1-yl)pyridin-2-yl)amino) isoindolin-1-one]"
9,< 1,"CN1CCN(c2ccc(Nc3cnc(-c4cc[nH]c4)c4c3C(=O)NC4)nc2)CC1 [Compound I-23, 7-[[5-(4-methylpiperazin-1-yl)-2-pyridyl]amino]-4-(1H-pyrrol-3-yl)-2,3-dihydropyrrolo [3,4-c]pyridin-1-one]"
10,1 to 5,"O=C1NCc2c(-c3ccccc3)ncc(Nc3ccc(N4CCNCC4)cn3)c21 [Compound I-11, 4-phenyl-7-[(5-piperazin-1-yl-2-pyridyl)amino]-2,3-dihydropyrrolo [3,4-c]pyridin-1-one]"
11,< 1,"Cn1cnc(-c2ccccc2)c1-c1ccc(Nc2ccc(N3CCNCC3)cn2)c2c1CNC2=O [Compound I-79, 4-(1-methyl-4-phenyl-1H-imidazol-5-yl)-7-((5-(piperazin-1-yl)pyridin-2-yl)amino) isoindolin-1-one]"
12,< 1,"CN1CCN(c2ccc(Nc3ccc(-c4cncn4C)c4c3C(=O)NC4)nc2)CC1 [Compound I-54, 4-(3-methylimidazol-4-yl)-7-[[5-(4-methylpiperazin-1-yl)-2-pyridyl]amino] isoindolin-1-one]"
13,1 to 5,"CN1CCN(c2ccc(Nc3ccc(-c4ccc(F)c(C5CCOCC5)c4)c4c3C(=O)NC4)nc2)CC1 [Compound I-87, 4-(4-fluoro-3-(tetrahydro-2H-pyran-4-yl)phenyl)-7-((5-(4-methylpiperazin-1-yl)pyridin-2-yl)amino) isoindolin-1-one]"
14,< 1,"CNc1cc(-c2ccc(Nc3ccc(N4CCN(C)CC4)cn3)c3c2CNC3=O)ncn1 [Compound I-48, 4-[6-(methylamino)pyrimidin-4-yl]-7-[[5-(4-methylpiperazin-1-yl)-2-pyridyl]amino] isoindolin-1-one]"
15,< 1,Cc1cccc(C#Cc2cc(-c3ccc(Nc4ccc(N5CCN(C)CC5)cn4)c4c3CNC4=O)ccn2)c1 [Compound I-64]
16,1 to 5,"O=C1NCc2c(-c3cn(-c4ccccc4)cn3)ccc(Nc3ccc(N4CCNCC4)cn3)c21 [Compound I-80, 4-(1-phenyl-1H-imidazol-4-yl)-7-((5-(piperazin-1-yl)pyridin-2-yl)amino) isoindolin-1-one]"
17,< 1,"CN1CCN(c2ccc(Nc3ccc(-c4ccncc4)c4c3C(=O)NC4)nc2)CC1 [Compound I-25, 7-[[5-(4-methylpiperazin-1-yl)-2-pyridyl]amino]-4-(4-pyridyl) isoindolin-1-one]"
18,< 1,CN1CCN(c2ccc(Nc3ccc(-c4ccnc(N(C)C)c4)c4c3C(=O)NC4)nc2)CC1 [Compound I-50]

row,IC50 [µM],Compound
1,1 to 5,"O=C1NCc2c(Cc3ccccc3)ccc(Nc3ccc(N4CCNCC4)cn3)c21 [Compound I-83, 4-benzyl-7-((5-(piperazin-1-yl)pyridin-2-yl)amino) isoindolin-1-one]"
2,1 to 5,"O=C1NCc2c(-c3ccccn3)ncc(Nc3ccc(N4CCNCC4)cn3)c21 [Compound I-4, 7-[(5-piperazin-1-yl-2-pyridyl)amino]-4-(2-pyridyl)-2,3-dihydropyrrolo [3,4-c]pyridin-1-one]"
3,1 to 5,"NC(=O)c1ncc(Nc2ccc(N3CCNCC3)cn2)c2c1CNC2=O [Compound I-8, 1-oxo-7-[(5-piperazin-1-yl-2-pyridyl)amino]-2,3-dihydropyrrolo [3,4-c]pyridine-4-carboxamide]"
4,< 1,"CN1CCN(c2ccc(Nc3ccc(-c4ccccn4)c4c3C(=O)NC4)nc2)CC1 [Compound I-31, 7-[[5-(4-methylpiperazin-1-yl)-2-pyridyl]amino]-4-(2-pyridyl) isoindolin-1-one]"
5,< 1,"CN1CCN(c2ccc(Nc3ccc(-c4ccnc(N5CCC6(CCNC6)CC5)c4)c4c3C(=O)NC4)nc2)CC1 [Compound I-42, 4-[2-(2,8-diazaspiro [4.5]decan-8-yl)-4-pyridyl]-7-[[5-(4-methylpiperazin-1-yl)-2-pyridyl]amino] isoindolin-1-one]"
6,1 to 5,"CN1CCN(c2ccc(Nc3ccc(-c4ccnc(N5CCC6(CCCO6)CC5)c4)c4c3C(=O)NC4)nc2)CC1 [Compound I-38, 7-[[5-(4-methylpiperazin-1-yl)-2-pyridyl]amino]-4-[2-(1-oxa-8-azaspiro[4. 5]decan-8-yl)-4-pyridyl] isoindolin-1-one]"
7,1 to 5,"O=C1NCc2c(-c3ccncc3)ncc(Nc3ccc(N4CCOCC4)cn3)c21 [Compound I-14, 7-[(5-morpholino-2-pyridyl)amino]-4-(4-pyridyl)-2,3-dihydropyrrolo [3,4-c]pyridin-1-one]"
8,< 1,"O=C1NCc2c(-c3ccncc3)ccc(Nc3ccc(N4CCOCC4)cn3)c21 [Compound I-26, 7-[(5-morpholino-2-pyridyl)amino]-4-(4-pyridyl) isoindolin-1-one]"
9,1 to 5,"Cn1cnc(-c2ccc(Nc3ccc(N4CCNCC4)cn3)c3c2CNC3=O)c1-c1ccccc1 [Compound I-77, 4-(1-methyl-5-phenyl-1H-imidazol-4-yl)-7-((5-(piperazin-1-yl)pyridin-2-yl)amino) isoindolin-1-one]"
10,1 to 5,"CS(=O)(=O)c1ncc(Nc2ccc(N3CCNCC3)cn2)c2c1CNC2=O [Compound I-5, 4-methylsulfonyl-7-[(5-piperazin-1-yl-2-pyridyl)amino]-2,3-dihydropyrrolo [3,4-c]pyridin-1-one]"
11,1 to 5,CN1CCN(c2ccc(Nc3ccc(-c4ccnc(C5CCOC5)c4)c4c3C(=O)NC4)nc2)CC1 (stereo not drawn) [Compound I-76]
12,< 1,"CN1CCN(c2ccc(Nc3ccc(-c4ccnc(N5CCOCC5)c4)c4c3C(=O)NC4)nc2)CC1 [Compound I-32, 7-[[5-(4-methylpiperazin-1-yl)-2-pyridyl]amino]-4-(2-morpholino-4-pyridyl) isoindolin-1-one]"
13,< 1,"CC#Cc1cc(-c2ccc(Nc3ccc(N4CCN(C)CC4)cn3)c3c2CNC3=O)ccn1 [Compound I-60, 7-((5-(4-methylpiperazin-1-yl)pyridin-2-yl)amino)-4-(2-(prop-1-yn-1-yl)pyridin-4-yl)isoindolin-1-one]"
14,1 to 5,CN1CCN(c2ccc(Nc3ccc(-c4ccncc4N4CC5CCC(C4)O5)c4c3C(=O)NC4)nc2)CC1 [Compound I-74]
15,1 to 5,"Cn1cc(-c2ncc(Nc3ccc(N4CCNCC4)cn3)c3c2CNC3=O)cn1 [Compound I-17, 4-(1-methylpyrazol-4-yl)-7-[(5-piperazin-1-yl-2-pyridyl)amino]-2,3-dihydropyrrolo [3,4-c]pyridin-1-one]"
16,1 to 5,"O=C1NCc2c(-c3cccnc3)ncc(Nc3ccc(N4CCNCC4)cn3)c21 [Compound I-7, 7-[(5-piperazin-1-yl-2-pyridyl)amino]-4-(3-pyridyl)-2,3-dihydropyrrolo [3,4-c]pyridin-1-one]"
17,1 to 5,"CN1CCN(c2ccc(Nc3cnc(-c4ccnc(N(C)C)c4)c4c3C(=O)NC4)nc2)CC1 [Compound I-58, 4-(2-(dimethylamino)pyridin-4-yl)-7-((5-(4-methylpiperazin-1-yl)pyridin-2-yl)amino)-2,3-dihydro-1H-pyrrolo[3,4-c]pyridin-1-one]"
18,< 1,"CN1CCN(c2ccc(Nc3ccc(-c4ccnc(C#Cc5ccn(C)n5)c4)c4c3C(=O)NC4)nc2)CC1 [Compound I-67, 4-(2-((1-methyl-1H-pyrazol-3-yl)ethynyl)pyridin-4-yl)-7-((5-(4-methylpiperazin-1-yl)pyridin-2-yl)amino) isoindolin-1-one]"
